Values after ≈ are worked out from the molar mass of the structure shown. Like-named read-outs stand apart in the source and are kept apart here. Each block holds one compound with its values, some of them ahead of it.
What was measured:
ddY mice = conditions: cited from earlier work
retinal cells = tested on: retinal cells; set-up: method as in PMID 27072643; conditions: in vitro; cited from earlier work
[1] = Stability on human microsomes; assay type: in vitro ADME; set-up: dose or concentration left out as unconfirmed; conditions: pooled liver microsomes, pH 7.4, 37 °C, NADPH-generating system, read-out: Stability on human microsomes T1/2
Description: The metabolic stability of IP-DHA on human microsomes (microsomes S9, cryopreserved hepatocytes, recombinant CYP, and recombinant UGT) has been evaluated and expressed as percentage of IP-DHA remaining. IP-DHA was pre-incubated with pooled liver microsomes in phosphate buffer (pH 7.4) at 10 mM for 5 min in a 37 °C shaking water bath (IKA® RH basic KT/C). The reaction was initiated using the NADPH-generating system and incubated for 0, 15, 30, 45, and 60 min. The reaction was stopped by transferring the incubation mixture to acetonitrile/methanol (1:3 v/v ratio). Samples were then mixed and centrifuged at 3000 rpm (Sigma centrifuge 2K15) for 20 min to precipitate the protein, and supernatants were collected. IP-DHA concentration was determined using µHPLC-MS/MS analysis, as described in Section 2.2.3. The half-life (T1/2) was estimated from the slope of the initial linear range of the logarithmic curve of the compound remaining (%) vs. time, assuming first-order kinetics.

ABCA4KO mice [2] = test: Acute light-induced retinal degeneration, electroretinography; assay type: in vivo; conditions: 100 mg/kg oral, 60 min before 20,000 Lux white light for 90 min, ERG 5 days later
Description: (§1) Mice between 8 and 16 weeks of age (both sexes), were weighed to adjust the quantity of administered compound for a dosage at 100, 50, or 17 mg/kg. Mice were orally fed with a 22-gauge needle containing SNEDDS or soybean oil as a control vehicle, IP-DHA solubilized in soybean oil (20 mg/mL), and SNEDDS-IP-DHA (30 mg/mL).
(§2) After the mice were dark-adapted (DA) for 24 h, their pupils were dilated with 0.5% tropicamide. The mice were force-fed in the dark 1 h before light exposure. Mice were exposed to constant light (two cool white fluorescent lamps, OSRAM of 26 watts, 1800 lm, a maximum photopic efficiency of ~470 nm, light intensity averaged to 24 mW/cm^2, corresponding to ≈20.000 Lux) for 1.50 h in a white plastic bucket with a fan. Mice were kept in the dark for 5 days before we performed the final retinal evaluations. Throughout the experiment, the ambient temperature was 22 °C, which was identical to that of the breeding box, to avoid an increase in body temperature, which could further damage the retina.
All electrophysiological examinations were conducted using the Visiosystem (SIEM, France). Animals were prepared and anesthetized, and electroretinogram recording (binocular full-field ERG) was performed with cotton electrodes, as previously described.

[3] = tested on: ABCA4KO (−/−) mouse model; set-up: method as in PMID 32641711; conditions: intravenous route, cited from earlier work
ABCA4KO mice [4] = test: Acute light-induced retinal degeneration, histological analysis; assay type: in vivo; conditions: 100 mg/kg oral, acute white light; dark-adapted mice 2.2
Description: as §1, §2
All animals were killed via cervical dislocation. The eyes were rapidly enucleated and fixed in 4% paraformaldehyde for 24 h at 4 °C. Eyecups were embedded in paraffin and cut into 5 μm sagittal sections. […] The thickness of the inner nuclear layer (INL) and the outer nuclear layer (ONL) was measured and expressed in arbitrary units using ImageJ software. […]

[5] = IP-DHA stability and solubility in gastric- and intestinal-simulated fluids; assay type: in vitro ADME; set-up: half-life: dose or concentration left out as unconfirmed
Description: The chemical stability of free IP-DHA and IP-DHA loaded in SNEDDS at 30 mg/mL was evaluated in a gastric and an intestinal environment (Table 1). A total of 150 µL of free IP-DHA (solubilized in MeOH) or SNEDDS-IP-DHA loaded at 30 mg/mL were placed in 20 mL of freshly prepared SGF or ISF under magnetic stirring at 150 rpm in a water bath at 37 °C. Samples were collected at 0, 30, 60, and 90 min for the stability analysis in SGF, or 0, 20, 40, 60, 80, 100, and 120 min for the stability analysis in ISF. A total of 500 µL of the medium was recovered and diluted with 500 µL of MeOH to stop the enzymatic degradation reaction. The samples were centrifuged (Sigma centrifuge 2K15) for 10 min at 15,000 rpm. The supernatant was removed and IP-DHA was quantified as described in Section 2.3.5.

Caco-2 permeability = assay type: in vitro ADME; conditions: human, Caco-2, pH 6.5/7.4, 10 μM
Description: Caco-2 cells are human intestinal epithelial cells that are derived from a colorectal adenocarcinoma. Cells were seeded at 1 × 10^5 cells/cm^2 in 96-well Multiscreen^TM plates (Millipore). This assay was performed in either the apical-to-basolateral (A–B) or B–A direction. IP-DHA was prepared at 10 μM in HBSS-MES (pH 6.5) or HBSS-HEPES (pH 7.4), with a final DMSO concentration of 1%. The working solution was then centrifuged, and the supernatant was added to the donor side. The assay plate was incubated at 37 °C with gentle shaking for 60 min or 40 min for the A–B or B–A assays, respectively. Samples were aliquoted from the donor side at time zero and from the end point, and from the receiver side at the end point. Samples were analyzed via HPLC-MS/MS, as described in Section 2.2.3.
The apparent permeability coefficient (Papp) in cm/s of IP-DHA was calculated as follows: Papp=VR×CRend/Δt×1/A×CDmind−CRmind where VR is the volume of the receiver chamber. CR(end) is the concentration of IP-DHA in the receiver chamber at the end time point, Δt is the incubation time, A is the surface area of the cell monolayer, and CD(mid) is the calculated mid-point concentration of the test compound on the donor side, which is the mean value of the donor concentration at time 0 min and the donor concentration at the end time point. […]

[6] = Solubility of IP-DHA in SNEDDS excipients; assay type: physicochemical
[7] = Solubility of IP-DHA in PBS, SGF and ISF without enzymes; assay type: physicochemical; conditions: for solubility: thermodynamic from solid, n = 3
Description: Solubility was evaluated in PBS (pH 7.4), SGF, and ISF (Table 1) without enzymes (pepsin and pancreatin). An excess of IP-DHA was added for each medium type, followed by mixing using a vortex mixer (Vortex Génie 2) and equilibration at room temperature. Next, the mixtures were centrifuged at 3000 rpm (Sigma centrifuge 2K15) for 15 min. The supernatant from each sample was diluted with methanol. The concentration of IP-DHA in each sample was determined using the µHPLC/MS-MS analysis, as described in Section 2.2.3.

Log P of IP-DHA = assay type: physicochemical
[8] = set-up: method as in PMID 27151507; conditions: administered dose of 25 mg/kg; cited from earlier work
rats = conditions: 25 mg/kg/day oral with corn oil, 30 days, 1.5 h/day (1500 Lux); cited from earlier work

Compound: CC1=C(/C=C/C(C)=C/C=C/C(C)=C/C=C/C=C(C)/C=C/C=C(C)/C=C/C2=C(C)C(=O)[C@@H](O)CC2(C)C)C(C)(C)C[C@H](O)C1=O [Astaxantin]
Photoreceptor protection (ddY mice; dissolved in olive oil, 100 mg/kg oral, white light 3 h at 8000 Lux): partially preserve photoreceptors

half-life [1]: 10 min | half-life ([5]; ISF with pancreatin and bile salts, pH 7.4, 37 °C, read-out: T1/2 of IP-DHA in intestinal environment (ISF)): 11 min | Stability of IP-DHA in gastric medium (SGF) ([5]; SGF with pepsin, pH 1.5, 37 °C, up to 90 min): remained stable | Papp B→A at 40 min, 10 μM (Caco-2 permeability; 40 min): 0.7 ± 0.05 ×10⁻⁶ cm/s | Papp A→B at 60 min, 10 μM (Caco-2 permeability; 60 min): 1 ± 0.14 ×10⁻⁶ cm/s | solubility ([6]; Labrasol, surfactant, read-out: Solubility of IP-DHA in Labrasol): 46 ± 2.15 mg/mL (≈ 96.1 mM) | solubility ([6]; Phosal 53 MCT, oil or lipid, oil phase, read-out: Solubility of IP-DHA in Phosal 53 MCT): 25.5 ± 3.27 mg/mL (≈ 53.2 mM) | solubility ([6]; Transcutol HP, organic solvent or mixture, co-surfactant, read-out: Solubility of IP-DHA in Transcutol HP): 45 ± 2.16 mg/mL (≈ 94.1 mM) | solubility ([7]; PBS, pH 7.4, aqueous buffer, room temperature, read-out: Solubility in PBS, pH 7.4): 0.0115 ± 0.00153 mg/mL (≈ 0.0241 mM) | BCS classification ([7]; from poor solubility and poor Caco-2 permeability): BCS Class IV | solubility ([7]; pH 1.5, simulated gastric fluid, free IP-DHA, SGF without pepsin, read-out: Solubility in SGF): 0.00739 ± 0.00026 mg/mL (≈ 0.0154 mM) | solubility ([7]; pH 7.4, fassgf or other biorelevant, free IP-DHA, ISF without pancreatin, read-out: Solubility in ISF): 0.0102 ± 0.00012 mg/mL (≈ 0.0213 mM) | logP (Log P of IP-DHA): > 5
Compound: CC/C=C\C/C=C\C/C=C\C/C=C\C/C=C\C/C=C\CCC(=O)Oc1cc(O)cc(OC(C)C)c1 [IP-DHA, phloroglucinol-isopropyl-DHA]
Toxicity on retinal cells (retinal cells): absence of the toxicity | a-wave, % of photoreceptor activity remaining vs dark-adapted mice (ABCA4KO mice [2]): 42% | b-wave, % of photoreceptor activity remaining vs dark-adapted mice (ABCA4KO mice [2]): 39% | Protection of photoreceptors ([3]; IP-DHA associated with BSA at 30 mg/kg): 80–85% | Effect on the retinoid visual cycle [3]: did not affect the retinoid visual cycle | INL/ONL ratio of thickness (ABCA4KO mice [4]): 0.7

Compound: CC(=O)N1CCN(c2ccc(N)c(-n3ccnc3)c2)CC1 [NSP-116]
Cmax in plasma [8]: 7000 ng/mL | Photoreceptor protection (ddY mice; suspended in water with 0.5% CMC, 30 mg/kg oral 30 min before white light 8000 Lux for 3 h): effective in protecting photoreceptors

Compound: CC1=C[C@H](O)CC(C)(C)[C@H]1/C=C/C(C)=C/C=C/C(C)=C/C=C/C=C(C)/C=C/C=C(C)/C=C/C1=C(C)C[C@@H](O)CC1(C)C [lutein]
Photoreceptor protection (rats): demonstrated its efficacy for protecting photoreceptors

From paper PMC9147958, “Formulation and Evaluation of SNEDDS Loaded with Original Lipophenol for the Oral Route to Prevent Dry AMD and Stragardt’s Disease” (Pharmaceutics, 2022)
